Results taken from US20210115104A1, “AMYLIN ANALOGUES” (Zealand Pharma A/S, priority 2015, published 2021).
*1 amine or outer side, *2 acyl side, *3 side chain or, on linkers, in order; H or OH if unused. Where a SMILES comes first, the peptide text is derived from it. Bridges are numbered along the chain shown (N, C = ends). [ ]: non-standard residue; d: D form. The star is where a group is joined. C20 diacid = O=C(O)CCCCCCCCCCCCCCCCCCC(=O)*; γGlu = O=C(O)[C@H](CCC(=O)[*:2])N[*:1]; Hyp = O=C(O)[C@@H]1C[C@@H](O)CN1; NMeI = CC[C@H](C)[C@H](NC)C(=O)O; Sar = CNCC(=O)O

Legend:
[1] = target: T1, human amylin receptor 3 (hAMYR3), hCTR2 co-expressed with hRAMP3 (Homo sapiens, UniProt O60896+P30988); experiment: hAMYR3 cAMP assay (AlphaScreen) in COS7 cells; format: cell-based; conditions: cAMP induction, COS7 cells expressing hAMYR3; Table 1; read-out: hAMYR3 EC50
T1 construct: expressed in transfected cells
T1 sequence (P30988 25-474): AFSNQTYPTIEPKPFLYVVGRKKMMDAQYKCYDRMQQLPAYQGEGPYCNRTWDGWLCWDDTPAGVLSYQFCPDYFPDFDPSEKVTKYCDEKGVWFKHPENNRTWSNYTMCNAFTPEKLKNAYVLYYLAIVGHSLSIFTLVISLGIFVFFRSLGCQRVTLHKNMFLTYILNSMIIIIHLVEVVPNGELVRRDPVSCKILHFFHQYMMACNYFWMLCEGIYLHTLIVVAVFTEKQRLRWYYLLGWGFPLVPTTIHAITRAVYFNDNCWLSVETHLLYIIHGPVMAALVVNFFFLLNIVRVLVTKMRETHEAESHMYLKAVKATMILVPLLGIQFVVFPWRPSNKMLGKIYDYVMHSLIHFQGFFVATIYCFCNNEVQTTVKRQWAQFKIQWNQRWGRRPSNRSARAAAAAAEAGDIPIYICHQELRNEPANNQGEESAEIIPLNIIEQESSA
T1 sequence (O60896 24-148 partner): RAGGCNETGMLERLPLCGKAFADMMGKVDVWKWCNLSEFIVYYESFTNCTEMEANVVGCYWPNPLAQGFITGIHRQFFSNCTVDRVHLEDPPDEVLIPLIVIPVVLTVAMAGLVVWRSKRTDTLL
Procedure, shortened: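 EC50 values derive from 4PL curve fits of cAMP (AlphaScreen) in lysates of RAMP-naive COS7 cells stably carrying hCTR2 plus hRAMP3. Peptide dilution series were applied for 15 min at 37 °C in pH 7.4 Tyrode buffer containing 100 µM IBMX and 0.1% casein.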

[2] = Assessment of physical stability (Thioflavin T fibrillation); format: physicochemical; set-up: key: FND = fibrillation not detected; FD = fibrillation detected; conditions: 1 mg/ml, 40° C., ThT; for Fibrillation pH 4.0 (Ac): 50 mM acetate buffer pH 4.0, 96 hours; for Fibrillation pH 7.0 (His): 50 mM histidine buffer pH 7.0, 96 hours; for Fibrillation pH 7.0 (Phos.): 50 mM phosphate buffer pH 7.0, 96 hours
Procedure, shortened: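 Fibrillation lag-time, in hours, taken where regressions of the initial stable phase and the growth phase intersect. ThT (40 μM) fluorescence monitored at 40 °C for 96 h, 10-min reads each preceded by 300 s mixing. Peptide at 1 mg/ml in 50 mM buffers: phosphate or histidine pH 7.0, acetate pH 4.0.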

SMILES | EC50 [1] | Fibrillation pH 4.0 (Ac) [2] | Fibrillation pH 7.0 (His) [2] | Fibrillation pH 7.0 (Phos.) [2]
CC[C@H](C)[C@@H](C(=O)N[C@@H](CC(C)C)C(=O)N[C@@H](CO)C(=O)N[C@@H](CO)C(=O)N[C@H](C(=O)N[C@@H](CCC(=O)O)C(=O)N[C@H](C(=O)NCC(=O)N[C@@H](CO)C(=O)N[C@@H](CC(N)=O)C(=O)N[C@H](C(=O)N1C[C@H](O)C[C@H]1C(N)=O)[C@@H](C)O)C(C)C)[C@@H](C)O)N(C)C(=O)[C@H](C)NC(=O)CN(C)C(=O)[C@H](Cc1ccccc1)NC(=O)[C@H](CO)NC(=O)[C@H](CO)NC(=O)[C@H](CCCNC(=N)N)NC(=O)[C@H](CC(N)=O)NC(=O)[C@H](CC(C)C)NC(=O)[C@H](Cc1ccccc1)NC(=O)[C@H](Cc1c[nH]cn1)NC(=O)[C@H](C)NC(=O)[C@H](CC(C)C)NC(=O)[C@H](CCCNC(=N)N)NC(=O)[C@H](CCC(=O)O)NC(=O)[C@@H](NC(=O)[C@H](C)NC(=O)[C@@H]1CSSC[C@H](NC(=O)[C@H](CCCNC(=N)N)NC(=O)CC[C@H](NC(=O)CCCCCCCCCCCCCCCCCCC(=O)O)C(=O)O)C(=O)NCC(=O)N[C@@H]([C@@H](C)O)C(=O)N[C@@H](C)C(=O)N[C@@H]([C@@H](C)O)C(=O)N1)[C@@H](C)O [Compound 6, [19CD]-isoGlu-R-C( )-GTAT-C( )-ATERLAHFLNRSSF-Gly(Me)-A-Ile(Me)-LSSTEVGSNT-Hyp-NH2] ({C20 diacid-γGlu}-RCGTATCATERLAHFLNRSSF[Sar]A[NMeI]LSSTEVGSNT[Hyp]-NH2; disulfide 2-7) | 0.22 nM | FND | FND | FND
CC[C@H](C)[C@@H](C(=O)N[C@@H](CC(C)C)C(=O)N[C@@H](CO)C(=O)N[C@@H](CO)C(=O)N[C@H](C(=O)N[C@@H](CCC(=O)O)C(=O)N[C@H](C(=O)NCC(=O)N[C@@H](CO)C(=O)N[C@@H](CC(N)=O)C(=O)N[C@H](C(=O)N1CCC[C@H]1C(N)=O)[C@@H](C)O)C(C)C)[C@@H](C)O)N(C)C(=O)[C@H](C)NC(=O)CN(C)C(=O)[C@H](Cc1ccccc1)NC(=O)[C@H](CO)NC(=O)[C@H](CO)NC(=O)[C@H](CCCNC(=N)N)NC(=O)[C@H](Cc1c[nH]cn1)NC(=O)[C@H](CC(C)C)NC(=O)[C@H](Cc1ccccc1)NC(=O)[C@H](Cc1c[nH]cn1)NC(=O)[C@H](C)NC(=O)[C@H](CC(C)C)NC(=O)[C@H](CCCNC(=N)N)NC(=O)[C@H](CCC(=O)O)NC(=O)[C@@H](NC(=O)[C@H](C)NC(=O)[C@@H]1CSSC[C@H](NC(=O)[C@H](CCCNC(=N)N)NC(=O)CC[C@H](NC(=O)CCCCCCCCCCCCCCCCCCC(=O)O)C(=O)O)C(=O)NCC(=O)N[C@@H]([C@@H](C)O)C(=O)N[C@@H](C)C(=O)N[C@@H]([C@@H](C)O)C(=O)N1)[C@@H](C)O [Compound 15, [19CD]-isoGlu-R-C( )-GTAT-C( )-ATERLAHFLHRSSF-Gly(Me)-A-Ile(Me)-LSSTEVGSNTP-NH2] ({C20 diacid-γGlu}-RCGTATCATERLAHFLHRSSF[Sar]A[NMeI]LSSTEVGSNTP-NH2; disulfide 2-7) | 0.079 nM | FND | FD | FND
CC[C@H](C)[C@@H](C(=O)N[C@@H](CC(C)C)C(=O)N[C@@H](CO)C(=O)N[C@@H](CO)C(=O)N[C@H](C(=O)N[C@@H](CCC(=O)O)C(=O)N[C@H](C(=O)NCC(=O)N[C@@H](CO)C(=O)N[C@@H](CO)C(=O)N[C@H](C(=O)N1C[C@H](O)C[C@H]1C(N)=O)[C@@H](C)O)C(C)C)[C@@H](C)O)N(C)C(=O)[C@H](C)NC(=O)CN(C)C(=O)[C@H](Cc1ccccc1)NC(=O)[C@H](CO)NC(=O)[C@H](CO)NC(=O)[C@H](CCCNC(=N)N)NC(=O)[C@H](CCC(N)=O)NC(=O)[C@H](CC(C)C)NC(=O)[C@H](Cc1ccccc1)NC(=O)[C@H](Cc1c[nH]cn1)NC(=O)[C@H](C)NC(=O)[C@H](CC(C)C)NC(=O)[C@H](CCCNC(=N)N)NC(=O)[C@H](CCC(=O)O)NC(=O)[C@@H](NC(=O)[C@H](C)NC(=O)[C@@H]1CSSC[C@H](NC(=O)[C@H](CCCNC(=N)N)NC(=O)CC[C@H](NC(=O)CCCCCCCCCCCCCCCCCCC(=O)O)C(=O)O)C(=O)NCC(=O)N[C@@H]([C@@H](C)O)C(=O)N[C@@H](C)C(=O)N[C@@H]([C@@H](C)O)C(=O)N1)[C@@H](C)O [Compound 28, [19CD]-isoGlu-R-C( )-GTAT-C( )-ATERLAHFLQRSSF-Gly(Me)-A-Ile(Me)-LSSTEVGSST-Hyp-NH2] ({C20 diacid-γGlu}-RCGTATCATERLAHFLQRSSF[Sar]A[NMeI]LSSTEVGSST[Hyp]-NH2; disulfide 2-7) | 0.13 nM | FND | FND | FND
CC[C@H](C)[C@@H](C(=O)N[C@@H](CC(C)C)C(=O)N[C@@H](CO)C(=O)N[C@@H](CO)C(=O)N[C@H](C(=O)N[C@@H](CCC(=O)O)C(=O)N[C@H](C(=O)NCC(=O)N[C@@H](CO)C(=O)N[C@@H](CO)C(=O)N[C@H](C(=O)N1CCC[C@H]1C(N)=O)[C@@H](C)O)C(C)C)[C@@H](C)O)N(C)C(=O)[C@H](C)NC(=O)CN(C)C(=O)[C@H](Cc1ccccc1)NC(=O)[C@H](CO)NC(=O)[C@H](CO)NC(=O)[C@H](CCCNC(=N)N)NC(=O)[C@H](CCC(N)=O)NC(=O)[C@H](CC(C)C)NC(=O)[C@H](Cc1ccccc1)NC(=O)[C@H](Cc1c[nH]cn1)NC(=O)[C@H](C)NC(=O)[C@H](CC(C)C)NC(=O)[C@H](CCCNC(=N)N)NC(=O)[C@H](CCC(=O)O)NC(=O)[C@@H](NC(=O)[C@H](C)NC(=O)[C@@H]1CSSC[C@H](NC(=O)[C@H](CCCNC(=N)N)NC(=O)CC[C@H](NC(=O)CCCCCCCCCCCCCCCCCCC(=O)O)C(=O)O)C(=O)NCC(=O)N[C@@H]([C@@H](C)O)C(=O)N[C@@H](C)C(=O)N[C@@H]([C@@H](C)O)C(=O)N1)[C@@H](C)O [Compound 34, [19CD]-isoGlu-R-C( )-GTAT-C( )-ATERLAHFLQRSSF-Gly(Me)-A-Ile(Me)-LSSTEVGSSTP-NH2] ({C20 diacid-γGlu}-RCGTATCATERLAHFLQRSSF[Sar]A[NMeI]LSSTEVGSSTP-NH2; disulfide 2-7) | 0.12 nM | FND | FND | FND
CC[C@H](C)[C@@H](C(=O)N[C@@H](CC(C)C)C(=O)N[C@@H](CO)C(=O)N[C@@H](CO)C(=O)N[C@H](C(=O)N[C@@H](CCC(=O)O)C(=O)N[C@H](C(=O)NCC(=O)N[C@@H](CO)C(=O)N[C@@H](CO)C(=O)N[C@H](C(=O)N1CCC[C@H]1C(N)=O)[C@@H](C)O)C(C)C)[C@@H](C)O)N(C)C(=O)[C@H](C)NC(=O)CN(C)C(=O)[C@H](Cc1ccccc1)NC(=O)[C@H](CO)NC(=O)[C@H](CO)NC(=O)[C@H](CCCNC(=N)N)NC(=O)[C@H](CCC(=O)O)NC(=O)[C@H](CC(C)C)NC(=O)[C@H](Cc1ccccc1)NC(=O)[C@H](Cc1c[nH]cn1)NC(=O)[C@H](C)NC(=O)[C@H](CC(C)C)NC(=O)[C@H](CCCNC(=N)N)NC(=O)[C@H](CCC(=O)O)NC(=O)[C@@H](NC(=O)[C@H](C)NC(=O)[C@@H]1CSSC[C@H](NC(=O)[C@H](CCCNC(=N)N)NC(=O)CC[C@H](NC(=O)CCCCCCCCCCCCCCCCCCC(=O)O)C(=O)O)C(=O)NCC(=O)N[C@@H]([C@@H](C)O)C(=O)N[C@@H](C)C(=O)N[C@@H]([C@@H](C)O)C(=O)N1)[C@@H](C)O [Compound 36, [19CD]-isoGlu-R-C( )-GTAT-C( )-ATERLAHFLERSSF-Gly(Me)-A-Ile(Me)-LSSTEVGSSTP-NH2] ({C20 diacid-γGlu}-RCGTATCATERLAHFLERSSF[Sar]A[NMeI]LSSTEVGSSTP-NH2; disulfide 2-7) | 0.36 nM | FND | FND | FD
